According to patent US6667311B2, “Nitrogen substituted biaryl purine derivatives as potent antiproliferative agents” (Albany Molecular Research, Inc., priority 2001, dated 2003):

How the values were obtained:
Type in all cases: cell-based, human
MDA-MB-435 = assay: NCI growth inhibition, MDA-MB-435; conditions: MDA-MB-435 (Breast)
UACC-257 = assay: NCI growth inhibition, UACC-257; conditions: UACC-257 (Melanoma)
NCI-H460 = assay: NCI growth inhibition, NCI-H460; conditions: NCI-H460 (Non-Small Cell Lung)
HOP-92 = assay: NCI growth inhibition, HOP-92; conditions: HOP-92 (Non-Small Cell Lung)
ACHN = assay: NCI growth inhibition, ACHN; conditions: ACHN (Renal)
BT-549 = assay: NCI growth inhibition, BT-549; conditions: BT-549 (Breast)
SW-620 = assay: NCI growth inhibition, SW-620; conditions: SW-620 (Colon)
SK-MEL-28 = assay: NCI growth inhibition, SK-MEL-28; conditions: SK-MEL-28 (Melanoma)
HCT-15 = assay: NCI growth inhibition, HCT-15; conditions: HCT-15 (Colon)
U251 = assay: NCI growth inhibition, U251; conditions: U251 (CNS)
UACC-62 = assay: NCI growth inhibition, UACC-62; conditions: UACC-62 (Melanoma)
HS 578T = assay: NCI growth inhibition, HS 578T; conditions: HS 578T (Breast)
HT29 = assay: NCI growth inhibition, HT29; conditions: HT29 (Colon)
IGROV1 = assay: NCI growth inhibition, IGROV1; conditions: IGROV1 (Ovarian)

SMILES: CC(=O)N[C@H]1CC[C@H](Nc2nc(NCc3ccc(-c4ccccc4)nc3)c3ncn(C(C)C)c3n2)CC1 [Compound 87]
- GI50 (MDA-MB-435): < 10 nM
- GI50 (UACC-257): 17 nM
- GI50 (NCI-H460): 220 nM
- GI50 (HOP-92): 88 nM
- GI50 (ACHN): 190 nM
- GI50 (BT-549): 20 nM
- GI50 (SW-620): < 10 nM
- GI50 (SK-MEL-28): < 10 nM
- GI50 (HCT-15): 66 nM
- GI50 (U251): 28 nM
- GI50 (UACC-62): 45 nM
- GI50 (HS 578T): < 10 nM
- GI50 (HT29): < 10 nM
- GI50 (IGROV1): 52 nM
